From ChEMBL document CHEMBL5338718, “Design and exploration of gut-restricted bifunctional molecule with TGR5 agonistic and DPP4 inhibitory effects for treating ulcerative colitis” (Eur J Med Chem, 2022)
Calls of active or inactive are those of the source. No cut-off for these calls is given here.

What was measured:
[1] = target: T1, G-protein coupled bile acid receptor 1 (Homo sapiens, UniProt Q8TDU6); experiment: Agonist activity at human TGR5 expressed in human HEK293 cells co-expressing CRE-driven luciferase reporter gene assessed as luciferase activity incubated for 5.5 hrs by Steady-Glo based luciferase assay; type: functional, cell-based
T1 sequence (Q8TDU6 whole entry): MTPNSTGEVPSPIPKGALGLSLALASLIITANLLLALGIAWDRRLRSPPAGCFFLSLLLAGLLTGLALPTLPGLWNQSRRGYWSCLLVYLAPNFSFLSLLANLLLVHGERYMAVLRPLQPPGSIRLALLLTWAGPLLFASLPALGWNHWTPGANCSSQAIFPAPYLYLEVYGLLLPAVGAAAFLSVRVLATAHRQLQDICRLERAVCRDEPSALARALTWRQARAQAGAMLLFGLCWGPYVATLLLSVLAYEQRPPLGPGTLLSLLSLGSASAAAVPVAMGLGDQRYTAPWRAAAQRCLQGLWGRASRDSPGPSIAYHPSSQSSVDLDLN

[2] = target: T2, G-protein coupled bile acid receptor 1 (Mus musculus, UniProt Q80SS6); experiment: Agonist activity at mouse TGR5 expressed in human HEK293 cells co-expressing CRE-driven luciferase reporter gene assessed as luciferase activity incubated for 5.5 hrs by Steady-Glo based luciferase assay; type: functional, cell-based
T2 sequence (Q80SS6 whole entry): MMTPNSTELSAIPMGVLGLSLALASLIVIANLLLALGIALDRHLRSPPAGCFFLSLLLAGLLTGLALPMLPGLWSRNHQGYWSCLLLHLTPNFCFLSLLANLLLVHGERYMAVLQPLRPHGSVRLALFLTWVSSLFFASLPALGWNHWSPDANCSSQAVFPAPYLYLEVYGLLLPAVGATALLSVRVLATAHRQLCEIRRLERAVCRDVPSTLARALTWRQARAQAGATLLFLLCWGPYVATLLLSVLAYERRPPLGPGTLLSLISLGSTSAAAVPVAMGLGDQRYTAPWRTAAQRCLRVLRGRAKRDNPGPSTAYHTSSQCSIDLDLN

[3] = target: Dipeptidyl peptidase 4 (Mus musculus, UniProt P28843); experiment: Inhibition of mouse serum DPP4 assessed as cleavage of substrate by measuring AMC release using Gly-Pro-AMC as substrate by fluorescence based microplate reader assay; type: cell-free
[4] = Water solubility at pH 6.8; type: physicochemical
[5] = Water solubility at pH 7.4; type: physicochemical
[6] = Apparent permeability across apical to basolateral side in human Caco-2 cells at 20 uM and measured upto 95 mins by LC-MS/MS analysis; type: ADME, cell-based
[7] = Apparent permeability across basolateral to apical side in human Caco-2 cells at 20 uM and measured upto 95 mins by LC-MS/MS analysis; type: ADME, cell-based
[8] = Cmax in overnight-fasted ICR mouse ileum at 30 mg/kg, po and measured upto 8 hrs by LC-MS/MS analysis; type: ADME, organism-based; design: dose 30 mg/kg, time < 8 hrs, route po
[9] = Cmax in overnight-fasted ICR mouse plasma at 30 mg/kg, po and measured upto 8 hrs by LC-MS/MS analysis; type: ADME, organism-based; design: dose 30 mg/kg, time < 8 hrs, route po
[10] = Cmax in overnight-fasted ICR mouse Gall bladder at 30 mg/kg, po and measured upto 8 hrs by LC-MS/MS analysis; type: ADME, organism-based; design: dose 30 mg/kg, time < 8 hrs, route po
[11] = system: Mus musculus; experiment: In vivo inhibition of DDP4 in ICR mouse assessed as decrease in enzyme activity in serum at 200 mg/kg,po and measured at 2 hrs using Gly-Pro-AMC as substrate by fluorescence based microplate reader assay; type: functional, organism-based
[12] = system: Mus musculus; experiment: In vivo inhibition of DDP4 in ICR mouse assessed as decrease in enzyme activity in serum at 200 mg/kg,po and measured at 4 hrs using Gly-Pro-AMC as substrate by fluorescence based microplate reader assay; type: functional, organism-based
[13] = system: Mus musculus; experiment: In vivo inhibition of DDP4 in ICR mouse assessed as decrease in enzyme activity in serum at 200 mg/kg,po and measured after 8 hrs using Gly-Pro-AMC as substrate by fluorescence based microplate reader assay; type: functional, organism-based
[14] = system: Mus musculus; experiment: In vivo inhibition of DDP4 in ICR mouse assessed as decrease in enzyme activity in ileum at 200 mg/kg,po and measured after 8 hrs using Gly-Pro-AMC as substrate by fluorescence based microplate reader assay; type: functional, organism-based
[15] = system: Mus musculus; experiment: In vivo inhibition of DDP4 in ICR mouse assessed as decrease in enzyme activity in ileum at 50 mg/kg,po and measured after 8 hrs using Gly-Pro-AMC as substrate by fluorescence based microplate reader assay; type: functional, organism-based
[16] = system: Mus musculus; experiment: In vivo inhibition of DDP4 in ICR mouse assessed as decrease in enzyme activity in ileum at 25 mg/kg,po and measured after 8 hrs using Gly-Pro-AMC as substrate by fluorescence based microplate reader assay; type: functional, organism-based
[17] = system: Mus musculus; experiment: In vivo agonist activity at TGR5 in overnight fasted ICR mouse assessed as increase in GLP-1 activity in serum at 100 mg/kg,po preincubated with sitagliptin at 30 mg/kg,po for one hr followed by compound addition and measured after 8 hrs by ELISA; type: functional, organism-based
[18] = system: Mus musculus; experiment: Anti-colitis activity against DSS-induced ulcerative colitis BALB/c mouse model assessed as suppression of DSS induced weight loss at 30 mg/kg,po for 10 days; type: functional, organism-based; settings: time 10.0 day
[19] = system: Mus musculus; experiment: Anti-colitis activity against DSS-induced ulcerative colitis BALB/c mouse model assessed as suppression of DSS induced diarrhea at 30 mg/kg,po for 10 days; type: functional, organism-based; settings: time 10.0 day
[20] = system: Mus musculus; experiment: Anti-colitis activity against DSS-induced ulcerative colitis BALB/c mouse model assessed as suppression of DSS induced fecal occult blood at 30 mg/kg,po for 10 days; type: functional, organism-based; settings: time 10.0 day
[21] = system: Mus musculus; experiment: Anti-colitis activity against DSS-induced ulcerative colitis BALB/c mouse model assessed as reduction in body weight loss by measuring DAI score at 30 mg/kg,po and measured after 5 to 10 days; type: functional, organism-based; settings: time 5-10 day
[22] = system: Mus musculus; experiment: Anti-colitis activity against DSS-induced ulcerative colitis BALB/c mouse model assessed as reduction in stool softness by measuring DAI score at 30 mg/kg,po and measured after 5 to 10 days; type: functional, organism-based; settings: time 5-10 day
[23] = system: Mus musculus; experiment: Anti-colitis activity against DSS-induced ulcerative colitis BALB/c mouse model assessed as reduction in fecal occult blood by measuring DAI score at 30 mg/kg,po and measured after 5 to 10 days; type: functional, organism-based; settings: time 5-10 day
[24] = system: Mus musculus; experiment: Anti-colitis activity against DSS-induced ulcerative colitis BALB/c mouse model assessed as recovery of colon length at 30 mg/kg,po for 10 days; type: functional, organism-based; settings: time 10.0 day
[25] = system: Mus musculus; experiment: Anti-colitis activity against DSS-induced ulcerative colitis BALB/c mouse model assessed as decrease in inflammatory cell infiltration at 30 mg/kg,po for 10 days by Hematoxylin and eosin staining based microscopy; type: functional, organism-based; settings: time 10.0 day
[26] = system: Mus musculus; experiment: Anti-colitis activity against DSS-induced ulcerative colitis BALB/c mouse model assessed as recovery of tissue damage at 30 mg/kg,po for 10 days by Hematoxylin and eosin staining based microscopy; type: functional, organism-based; settings: time 10.0 day
[27] = system: Mus musculus; experiment: Anti-colitis activity against DSS-induced ulcerative colitis BALB/c mouse model assessed as decrease in histological score at 30 mg/kg,po for 10 days by Hematoxylin and eosin staining based microscopy; type: functional, organism-based; settings: time 10.0 day
[28] = system: Mus musculus; experiment: Induction of gut restriction in overnight fasted ICR mouse assessed as effect on gallbladder-filling by measuring gallbladder volume at 30 to 200 mg/kg, po and measured after 4 hrs by Vernier caliper analysis; type: functional, organism-based; settings: dose 30-200 mg/kg
[29] = system: Mus musculus; experiment: Induction of gut restriction in overnight fasted ICR mouse assessed as effect on gallbladder-filling by measuring bile weight at 30 to 200 mg/kg, po and measured after 4 hrs by Vernier caliper analysis; type: functional, organism-based; settings: dose 30-200 mg/kg

Sequence of Dipeptidyl peptidase 4 (P28843 whole entry): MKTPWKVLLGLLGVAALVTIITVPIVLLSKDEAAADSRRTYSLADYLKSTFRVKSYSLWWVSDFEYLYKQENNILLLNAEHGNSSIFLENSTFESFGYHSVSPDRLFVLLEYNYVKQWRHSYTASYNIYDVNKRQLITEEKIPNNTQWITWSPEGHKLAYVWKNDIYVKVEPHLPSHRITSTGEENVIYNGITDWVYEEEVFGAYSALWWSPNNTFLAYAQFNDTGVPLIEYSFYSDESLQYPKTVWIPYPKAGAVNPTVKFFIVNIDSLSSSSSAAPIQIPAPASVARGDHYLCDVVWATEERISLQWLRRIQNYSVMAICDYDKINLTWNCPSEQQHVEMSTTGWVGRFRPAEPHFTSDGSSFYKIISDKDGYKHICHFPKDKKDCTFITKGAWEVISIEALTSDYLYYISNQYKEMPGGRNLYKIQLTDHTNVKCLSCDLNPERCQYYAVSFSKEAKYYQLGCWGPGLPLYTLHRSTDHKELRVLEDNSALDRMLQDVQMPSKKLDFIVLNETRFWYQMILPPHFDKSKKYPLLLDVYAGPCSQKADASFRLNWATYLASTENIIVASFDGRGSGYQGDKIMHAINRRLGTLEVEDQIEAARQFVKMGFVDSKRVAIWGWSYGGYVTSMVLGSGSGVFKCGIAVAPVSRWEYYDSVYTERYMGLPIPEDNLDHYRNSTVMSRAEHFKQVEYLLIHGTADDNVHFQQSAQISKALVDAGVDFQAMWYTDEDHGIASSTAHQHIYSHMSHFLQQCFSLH

EC50 [1]: 48.5 nM
EC50 [2]: 3.4 nM
IC50 [3]: 21.5 nM
solubility [4]: > 100 µM
solubility [5]: > 100 µM
Papp A→B at 1.583 h, 20 µM [6]: 0.01 ×10⁻⁶ cm/s
Papp B→A at 1.583 h, 20 µM [7]: 0.01 ×10⁻⁶ cm/s
Cmax [8]: 11700 ng/mL
Cmax [9]: 8.3 ng/mL
Cmax [10]: 820 ng/mL
Compound: CC1C(=O)N(CC(=O)N(CCOCCOCCOCCOCCOCCOCCOCCOCCN(CC(=O)O)C(=O)CCc2cc(Cl)c(Oc3ccsc3C(=O)N3CCN(C4CC4)c4ccccc43)cc2Cl)CC(=O)O)CCCN1C(=O)C[C@H](N)Cc1cc(F)c(F)cc1F (mixture of isomers)
inhibition [11]: inactive
inhibition [12]: inactive
inhibition [13]: Active
inhibition [14]: Active
inhibition [15]: Active
inhibition [16]: Active
Activity [17]: Active
Activity [18]: Active
Activity [19]: Active
Activity [20]: Active
Activity [21]: Active
Activity [22]: Active
Activity [23]: Active
Activity [24]: Active
Activity [25]: Active
Activity [26]: Active
Activity [27]: Active
Activity [28]: Active
Activity [29]: Active
